Assay results: patent US20250313563A1, “GLYCOGEN SYNTHASE KINASE 3 INHIBITORS AND USES THEREOF” (The Broad Institute, Inc., priority 2022, published 2025)
Read-outs that look alike come from different tables or passages of the source.

What was measured:
[1] = target: GSK3b (GST-full length GSK3b) (Homo sapiens (Human), UniProt P49841); test: GSK3b TR-FRET kinase assay; type: biochemical
Procedure, shortened: (§1)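 Compound was preincubated 30 min with 1 nM GST-GSK3 enzyme. Reaction ran 100 min at ambient temperature in Tris pH 7.5/MgCl2 with 200 nM biotinylated pS645-glycogen synthase 631-650 peptide and ATP (4 μM GSK3α, 2 μM GSK3b, or 1 mM). The EDTA-stopped reaction was read by TR-FRET (Tb-anti-pSer641/streptavidin-d2), and IC50s were fitted.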

[2] = target: GSK3α (GST-full length GSK3α) (Homo sapiens (Human), UniProt P49840); test: GSK3α TR-FRET kinase assay; type: biochemical
Procedure, shortened: as §1

[3] = 1 nM GSK3b, 2 μM ATP, 30 minute preincubation, Table 16, read-out: GSK3-B TR-FRET BIOCHEMICAL (TR-FRET), IC50
[4] = 1 nM GSK3α, 4 μM ATP, 30 minute preincubation, Table 16, read-out: GSK3-A TR-FRET BIOCHEMICAL (TR-FRET), IC50
[5] = 1 nM GSK3b, 2 μM ATP, 30 minute preincubation, Table 16, read-out: GSK3-B TR-FRET BIOCHEMICAL (TR-FRET)
[6] = 1 nM GSK3α, 4 μM ATP, 30 minute preincubation, Table 16, read-out: GSK3-A TR-FRET BIOCHEMICAL (TR-FRET)

Sequence of GSK3b (GST-full length GSK3b) (P49841 whole entry): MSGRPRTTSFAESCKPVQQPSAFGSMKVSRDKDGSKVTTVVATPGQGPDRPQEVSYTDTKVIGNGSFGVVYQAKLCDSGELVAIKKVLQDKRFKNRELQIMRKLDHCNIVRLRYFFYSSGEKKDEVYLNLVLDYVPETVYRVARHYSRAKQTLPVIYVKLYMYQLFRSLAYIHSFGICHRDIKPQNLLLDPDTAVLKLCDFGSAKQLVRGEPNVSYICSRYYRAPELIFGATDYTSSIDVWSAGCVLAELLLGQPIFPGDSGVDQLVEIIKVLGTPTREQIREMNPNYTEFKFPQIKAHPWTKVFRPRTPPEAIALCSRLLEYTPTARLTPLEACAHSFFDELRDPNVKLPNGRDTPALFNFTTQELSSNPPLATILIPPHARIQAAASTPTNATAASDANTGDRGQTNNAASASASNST
Sequence of GSK3α (GST-full length GSK3α) (P49840 whole entry): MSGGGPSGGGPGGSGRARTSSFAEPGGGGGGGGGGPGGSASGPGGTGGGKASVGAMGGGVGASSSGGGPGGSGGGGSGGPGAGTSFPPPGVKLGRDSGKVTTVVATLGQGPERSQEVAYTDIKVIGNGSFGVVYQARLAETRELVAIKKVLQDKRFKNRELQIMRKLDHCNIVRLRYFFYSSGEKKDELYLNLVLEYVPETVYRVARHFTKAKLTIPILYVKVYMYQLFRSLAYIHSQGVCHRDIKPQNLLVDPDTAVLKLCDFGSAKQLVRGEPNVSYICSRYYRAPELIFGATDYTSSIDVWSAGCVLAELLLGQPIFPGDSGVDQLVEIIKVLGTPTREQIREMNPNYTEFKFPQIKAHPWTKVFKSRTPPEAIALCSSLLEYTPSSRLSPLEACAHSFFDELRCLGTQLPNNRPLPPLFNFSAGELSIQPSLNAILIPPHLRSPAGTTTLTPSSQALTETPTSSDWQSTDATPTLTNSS

## CC1(C)CC(=O)C2=C(C1)Nc1n[nH]cc1[C@]21CO[C@H](C2CC2)C1 [Compound 913184]
[1]; [3]
  IC50: 1000 to 5000 nM
[2]; [4]
  IC50: 100 to 1000 nM

## CCC1(c2cccc(C(F)(F)F)c2)C2=C(Nc3n[nH]cc31)C(C)(C)N(C)C2=O (stereo not drawn) [Compound 913198]
[1]; [5]
  IC50: 100 to 1000 nM
[2]; [6]
  IC50: ≤ 100 nM

## CC[C@@H]1C[C@@]2(CO1)C1=C(CC(C)(C)CC1=O)Nc1n[nH]cc12 [Compound 913213]
[1]; [5]
  IC50: 1000 to 5000 nM
[2]; [6]
  IC50: 100 to 1000 nM

## CC[C@H]1C[C@@]2(CO1)C1=C(CC(C)(C)CC1=O)Nc1n[nH]cc12 [Compound 913214]
[1]; [5]
  IC50: 1000 to 5000 nM
[2]; [6]
  IC50: 100 to 1000 nM

## CC[C@@H]1C[C@]2(CO1)C1=C(CC(C)(C)CC1=O)Nc1n[nH]cc12 [Compound 913215]
[1]; [5]
  IC50: 1000 to 5000 nM
[2]; [6]
  IC50: 100 to 1000 nM

## CC[C@H]1C[C@]2(CO1)C1=C(CC(C)(C)CC1=O)Nc1n[nH]cc12 [Compound 913216]
[1]; [5]
  IC50: 100 to 1000 nM
[2]; [6]
  IC50: 100 to 1000 nM

## CC1(C)CC(=O)C2=C(C1)Nc1n[nH]cc1C21CCCc2ccccc21 (stereo not drawn) [Compound 913219]
[1]; [3]
  IC50: 100 to 1000 nM
[2]; [4]
  IC50: ≤ 100 nM

## CC[C@]1(c2cccc(-c3cc(C)nc(C)c3)c2)C2=C(CC(C)(C)CC2=O)Nc2n[nH]cc21 [Compound 913223]
[1]; [3]
  IC50: > 5000 nM
[2]; [4]
  IC50: > 5000 nM

## CCC1(c2cccc(Br)c2)C2=C(CC(C)NC2=O)Nc2n[nH]cc21 (stereo not drawn) [Compound 913225]
[1]; 1 nM GSK3b, 2 μM ATP, 30 minute preincubation, read-out: GSK3-B TR-FRET BIOCHEMICAL (TR-FRET), IC50
  IC50: 1000 to 5000 nM
[2]; 1 nM GSK3α, 4 μM ATP, 30 minute preincubation, read-out: GSK3-A TR-FRET BIOCHEMICAL (TR-FRET), IC50
  IC50: 100 to 1000 nM

## CC1(C)CC(=O)C2=C(C1)Nc1n[nH]cc1C21CCN(S(=O)(=O)c2ccc3c(c2)CCO3)CC1 [Compound 913251]
[1]; [5]
  IC50: ≤ 100 nM
[2]; [6]
  IC50: ≤ 100 nM

## CCC1(c2cccc(N(C)c3ccc(OC)nc3)c2)C2=C(CC(C)(C)CC2=O)Nc2n[nH]cc21 (stereo not drawn) [Compound 913252]
[1]; [3]
  IC50: 100 to 1000 nM
[2]; [4]
  IC50: 100 to 1000 nM

## CCC1(c2cccc(NS(C)(=O)=O)c2)C2=C(CC(C)(C)CC2=O)Nc2n[nH]cc21 (stereo not drawn) [Compound 913253]
[1]; [3]
  IC50: ≤ 100 nM
[2]; [4]
  IC50: ≤ 100 nM

## CCC1(c2cccc(N(C)c3ccnc(C(F)(F)F)c3)c2)C2=C(CC(C)(C)CC2=O)Nc2n[nH]cc21 (stereo not drawn) [Compound 913254]
[1]; [3]
  IC50: ≤ 100 nM
[2]; [4]
  IC50: ≤ 100 nM

## CCC1(c2cccc(N(C)c3cc(C)nc(C)c3)c2)C2=C(CC(C)(C)CC2=O)Nc2n[nH]cc21 (stereo not drawn) [Compound 913256]
[1]; [3]
  IC50: > 5000 nM
[2]; [4]
  IC50: 1000 to 5000 nM

## CCC1(c2cccc(S(=O)(=O)Cc3ccccc3)c2)C2=C(CC(C)(C)CC2=O)Nc2n[nH]cc21 (stereo not drawn) [Compound 913258]
[1]; [3]
  IC50: ≤ 100 nM
[2]; [4]
  IC50: ≤ 100 nM

## CC1(C)CC(=O)C2=C(C1)Nc1n[nH]cc1C21CN(S(=O)(=O)C2CC2)C1 [Compound 913259]
[1]; [5]
  IC50: ≤ 100 nM
[2]; [6]
  IC50: ≤ 100 nM

## Cn1ccc(S(=O)(=O)N2CC3(C2)C2=C(CC(C)(C)CC2=O)Nc2n[nH]cc23)n1 [Compound 913260]
[1]; [5]
  IC50: ≤ 100 nM
[2]; [6]
  IC50: ≤ 100 nM

## COc1ccccc1S(=O)(=O)N1CC2(C1)C1=C(CC(C)(C)CC1=O)Nc1n[nH]cc12 [Compound 913261]
[1]; [5]
  IC50: ≤ 100 nM
[2]; [6]
  IC50: ≤ 100 nM

## CC1(C)CC(=O)C2=C(C1)Nc1n[nH]cc1C21CN(S(=O)(=O)c2ccccn2)C1 [Compound 913262]
[1]; [5]
  IC50: ≤ 100 nM
[2]; [6]
  IC50: ≤ 100 nM

## CC1(C)CC(=O)C2=C(C1)Nc1n[nH]cc1C21CN(S(=O)(=O)c2ccccc2F)C1 [Compound 913263]
[1]; [5]
  IC50: 100 to 1000 nM
[2]; [6]
  IC50: 100 to 1000 nM

## CN1CC2(C1)C1=C(CC(C)(C)CC1=O)Nc1n[nH]cc12 [Compound 913264]
[1]; [5]
  IC50: ≤ 100 nM
[2]; [6]
  IC50: ≤ 100 nM

## CC1(C)CC(=O)C2=C(C1)Nc1n[nH]cc1C21CN(S(=O)(=O)c2cccnc2)C1 [Compound 913265]
[1]; [3]
  IC50: > 5000 nM
[2]; [4]
  IC50: > 5000 nM

## CCC1(c2cccc(N(c3cccnc3)C3CC3)c2)C2=C(CC(C)(C)CC2=O)Nc2n[nH]cc21 (stereo not drawn) [Compound 913274]
[1]; [3]
  IC50: ≤ 100 nM
[2]; [4]
  IC50: ≤ 100 nM

## CCC1(c2cccc(N(C)C(=O)c3cnn(C)c3)c2)C2=C(CC(C)(C)CC2=O)Nc2n[nH]cc21 (stereo not drawn) [Compound 913311]
[1]; [3]
  IC50: ≤ 100 nM
[1]; read-out: GSK3-B (TR-FRET 1 mM ATP), GMean, IC50, 1 mM ATP, geometric mean
  IC50: > 5000 nM
[2]; [4]
  IC50: ≤ 100 nM
[2]; read-out: GSK3-A (TR-FRET 1 mM ATP), GMean, IC50, 1 mM ATP, geometric mean
  IC50: > 5000 nM

## CCC1(c2cccc(Nc3ncccn3)c2)C2=C(CC(C)(C)CC2=O)Nc2n[nH]cc21 (stereo not drawn) [Compound 913334]
[1]; [3]
  IC50: 100 to 1000 nM
[2]; [4]
  IC50: ≤ 100 nM

## CCC1(c2cccc(-c3ccnc(C)c3C)c2)C2=C(CC(C)(C)CC2=O)Nc2n[nH]cc21 (stereo not drawn) [Compound 913347]
[1]; [3]
  IC50: ≤ 100 nM
[2]; [4]
  IC50: ≤ 100 nM
